According to patent publication US9936699B2, “Halogen-substituted compounds” (BAYER CROPSCIENCE AKTIENGESELLSCHAFT, priority 2014, dated 2018):

Legend:
[1] = logP determination by HPLC on reversed-phase column (C18), EEC Directive 79/831 Annex V.A8; type: physicochemical; conditions: reversed-phase C18, acetonitrile/water with formic acid
[2] = test system: adult cat fleas (Ctenocephalides felis); test: Ctenocephalides felis in-vitro contact test, adult cat flea; type: in vivo; conditions: 5 μg/cm^2 (=500 g/ha), after 48 hours
Experimental: Ctenocephalides felis—In-Vitro Contact Tests Adult Cat Flea
(§1) 9 mg compound is solved in 1 ml acetone and diluted with acetone to the desired concentration. 250 μl of the test solution is filled in 25 ml glass test tubes and homogeneously distributed on the inner walls by rotation and tilting on a shaking device (2 h at 30 rpm). With a compound concentration of 900 ppm, an inner surface of 44.7 cm^2 and a homogeneous distribution, a dose of 5 μg/cm^2 is achieved.
(§2) After the solvent has evaporated, each test tube is filled with 5-10 adult cat fleas (Ctenocephalides felis), closed with a perforated lid and incubated in a lying position at room temperature and relative humidity. After 48 hours efficacy is determined. The fleas are patted on the ground of the tubes and are incubated on a heating plate at 45-50° C. for at most 5 minutes. Immotile or uncoordinated moving fleas, which are not able to escape the heat by climbing upwards, are marked as dead or moribund.
An efficacy of 100% means all fleas are dead or moribund; 0% means no fleas are dead or moribund.

[3] = test system: fall armyworm larvae (Spodoptera frugiperda); test: Spodoptera frugiperda spray test (maize leaf sections); type: in vivo; conditions: 100 g/ha, after 7 days
Source text: Spodoptera frugiperda—Spray Test
(§3) Solvent: 78.0 parts by weight acetone
(§4) • 1.5 parts by weight dimethylformamide Emulsifier: alkylarylpolyglycol ether
Maize (Zea mays) leaf sections are sprayed with a preparation of the active ingredient of the desired concentration. Once dry, the leaf sections are infested with fall armyworm larvae (Spodoptera frugiperda).

[4] = test system: adult house flies (Musca domestica); test: Musca domestica test (MUSCDO); type: in vivo; conditions: 100 ppm, after 2 days
Source text: Musca domestica—Test (MUSCDO)
(§5) Solvent: dimethyl sulfoxide
10 adult house flies (Musca domestica) are transferred into a container, containing a sponge soaked with a mixture of sugar solution and compound solution of the desired concentration.

[5] = test system: two-spotted spider mite (Tetranychus urticae); test: Tetranychus urticae spray test; OP-resistant (bean plants); type: in vivo; conditions: after 7 days
[6] = test system: two spotted spidermite (Tetranychus urticae); test: Tetranychus urticae spray test OP-resistant (French bean leaf disks); type: in vivo; conditions: 100 g/ha, after 6 days
Experimental: Tetranychus urticae—Spray Test OP-Resistant
as §3, §4
French bean (Phaseolus vulgaris) leaf disks which are heavily infested with all stages of the two spotted spidermite (Tetranychus urticae) are sprayed with a preparation of the active ingredient of the desired concentration.
After 6 days mortality in % is determined.

[7] = test system: adult engorged female ticks (Boophilus microplus); test: Boophilus microplus injection test (BOOPMI Inj); type: in vivo; conditions: 20 μg/animal, egg deposition after 7 days
Experimental: Boophilus microplus—Injectiontest (BOOPMI Inj)
as §5
Five adult engorged female ticks (Boophilus microplus) are injected with 1 μl compound solution into the abdomen. The ticks are transferred into replica plates and incubated in a climate chamber.
(§6) After 7 days egg deposition of fertile eggs is monitored. Eggs where fertility is not visible are stored in a climate chamber till hatching after about 42 days. An efficacy of 100% means all eggs are infertile; 0% means all eggs are fertile.

[8] = test system: green peach aphid (Myzus persicae); test: Myzus persicae spray test (pepper leaves); type: in vivo; conditions: after 6 days
[9] = test system: Tick nymphs (Amblyomma hebraeum); test: Amblyomma hebraeum test (AMBYHE); type: in vivo; conditions: 100 ppm, after 42 days
Experimental: Amblyomma hebraeum—Test (AMBYHE)
as §5
Tick nymphs (Amblyomma hebraeum) are placed in perforated plastic beakers and immersed in the aqueous compound solution for one minute. Ticks are transferred to a filter paper in a petridish and incubated in a climate chamber.

[10] = test system: cattle ticks (Boophilus microplus) strane Parhurst, SP-resistant; test: Boophilus microplus dip test (BOOPMI Dip); type: in vivo; conditions: 100 ppm, egg deposition after 7 days
Source text: Boophilus microplus—Diptest (BOOPMI Dip)
Test animal: cattle ticks (Boophilus microplus) strane Parhurst, SP-resistant
as §5
This compound solution is pipetted into tubes. 8-10 engorged, adult, female cattle ticks (Boophilus microplus) are placed in perforated tubes. These tubes are immersed in the aqueous compound solution until the ticks are completely moistened. After the liquid has drained off, the ticks are transferred to a filter paper in a plastic tray and stored in a climate chamber.
as §6

[11] = test system: adult brown dog ticks (Rhipicephalus sanguineus); test: Rhipicephalus sanguineus in-vitro contact test with adult brown dog ticks; type: in vivo; conditions: 5 μg/cm^2 (=500 g/ha), after 48 hours
Experimental: Rhipicephalus sanguineus—In-Vitro Contact Tests with Adult Brown Doe Ticks
as §1
as §2, with “brown dog ticks (Rhipicephalus sanguineus),” for “cat fleas (Ctenocephalides felis),”, “ticks” for “fleas”, “ticks,” for “fleas,”
An efficacy of 100% means all ticks are dead or moribund; 0% means no ticks are dead or moribund.

[12] = test system: larvae of the Australian sheep blowfly (Lucilia cuprina); test: Lucilia cuprina test (LUCICU); type: in vivo; conditions: 100 ppm, after 2 days
Experimental: Lucilia cuprina—Test (LUCICU)
as §5
10 mg active compound are dissolved in 0.5 ml Dimethylsulfoxid. Serial dilutions are made to obtain the desired rates.
Approximately 20 […] instar larvae of the Australian sheep blowfly (Lucilia cuprina) are transferred into a test tube containing minced horse meat and compound solution of the desired concentration.

Row | Compound | logP [1] | efficacy (fleas dead or moribund) [2] [%] | mortality in % [4] [%] | efficacy (infertile eggs) [7] [%] | further results
1 | Cc1ncc(-c2cnn(-c3c([S+](C)[O-])c(C(F)(F)C(F)(F)F)nn3C)c2)cc1C(=O)NC1CC1 (stereo not drawn) [Example I-14] | 1.85 | – | – | – | –
2 | Cn1nc(C(F)(F)C(F)(F)F)c([S+](C)[O-])c1-n1cc(-c2ccc(Cl)c(C(=O)NC3CC3)c2)cn1 (stereo not drawn) [Example I-06] | 2.60 | 100 | 100 | 100 | mortality in % [3]: 100%; mortality in % ([5]; 20 ppm): 90%; mortality in % [6]: 90%; mortality in % ([8]; 20 ppm): 99%
3 | Cn1nc(C(F)(F)C(F)(F)F)c(S(C)(=O)=O)c1-n1cc(-c2ccc(Cl)c(C(=O)NC3CC3)c2)cn1 [Example I-07] | 2.78 | 100 | 100 | 100 | mortality in % [3]: 100%; mortality in % [9]: 100%; efficacy (infertile eggs) [10]: 100%
4 | Cc1ccc(-c2cnn(-c3c([S+](C)[O-])c(C(F)(F)C(F)(F)F)nn3C)c2)cc1C(=O)NC1CC1 (stereo not drawn) [Example I-18] | 2.57 | 100 | – | 100 | efficacy (ticks dead or moribund) [11]: 80%
5 | Cn1nc(C(F)(F)C(F)(F)F)c([S+](C)[O-])c1-n1cc(-c2ccc(Cl)c(C(=O)NC3(C#N)CC3)c2)cn1 (single isomer, unassigned) [Example I-08] | 2.59 | – | – | – | –
6 | Cn1nc(C(F)(F)C(F)(F)F)c([S+](C)[O-])c1-n1cc(-c2cnc(Cl)c(C(=O)NC3(C#N)CC3)c2)cn1 (stereo not drawn) [Example I-20] | 2.23 | – | 90 | 100 | mortality in % ([8]; 4 ppm): 95%
7 | Cn1nc(C(F)(F)F)c(S(C)(=O)=O)c1-n1cc(-c2ccc(Cl)c(C(=O)NC3CC3)c2)cn1 [Example I-05] | 2.34 | – | – | 100 | mortality in % [12]: 90%; mortality in % ([8]; 20 ppm): 100%
8 | CCSc1c(C(F)(F)C(F)(F)F)nn(C)c1-n1cc(-c2ccc(Cl)c(C(=O)NC3CC3)c2)cn1 [Example I-11] | 3.85 | – | 100 | 100 | mortality in % [3]: 100%; mortality in % [9]: 100%; efficacy (infertile eggs) [10]: 100%
9 | CSc1c(C(F)(F)C(F)(F)F)nn(C)c1-n1cc(Br)cn1 [Example 15, 4-bromo-2′-methyl-4′-(methylsulfanyl)-5′-(pentafluoroethyl)-2′H-1,3′-bipyrazole] | – | – | – | – | chromatographic logP ([1]; reversed-phase C18 HPLC column): 3.95
10 | CC[S+]([O-])c1c(C(F)(F)C(F)(F)F)nn(C)c1-n1cc(-c2ccc(Cl)c(C(=O)NC3CC3)c2)cn1 (stereo not drawn) [Example I-22] | 2.88 | – | – | – | –
11 | CC[S+]([O-])c1c(C(F)(F)C(F)(F)F)nn(C)c1-n1cc(-c2ccc(Cl)c(C(=O)NC3(C#N)CC3)c2)cn1 (stereo not drawn) [Example I-25] | 2.84 | – | – | – | mortality in % ([5]; 4 ppm): 95%
12 | Cc1ccc(-c2cnn(-c3c(S(C)(=O)=O)c(C(F)(F)C(F)(F)F)nn3C)c2)cc1C(=O)NC1CC1 [Example I-09] | 2.75 | 100 | 80 | 100 | mortality in % [12]: 90%; efficacy (infertile eggs) [10]: 80%
